# Laboratory results taken from US20220152048A1, “Botanical Extracts and Compounds from Castanea Plants and Methods of Use” (Emory University, priority 2019, published 2022).
# Columns and labels:
# [1] = tested on: S. aureus; test: Growth (optical density) of S. aureus; format: cell-based, Staphylococcus aureus; conditions: at the IC50 concentration of 8 μg/mL
# Protocol: (§1) Fractions were tested for quorum quenching activity against all four agr types agr P3-YFP reporter strains AH1677 (type I), AH430 (type II), AH1747 (type III), and AH1872 (type IV). Sample stock solutions were dissolved in DMSO at a concentration of 2 mg/mL. Overnight cultures of reporter strains that were grown in TSB supplemented with chloramphenicol (Cam) were inoculated into fresh TSB containing Cam to achieve a working culture OD of 0.0006. Working culture was added to 96-well microtiter plates (Costar 3603) as was sample in order to achieve a final well volume of 200 μL. Mock vehicle (DMSO) treatments were included for each reporter strain. Microtiter plates were incubated at 37° C. with shaking (1250 rpm) in a Stuart SI505 incubator (Bibby Scientific, Burlington, N.J.) with a humidified chamber. Fluorescence (top reading, 493 nm excitation, 535 nm emission, gain 60) and optical density (OD) readings at 600 nm were recorded at 18 h using a Tecan Systems (San Jose, Calif.) Infinite M200 plate reader.
# [2] = tested on: Staphylococcus aureus reporter strain of agr I expression (AH1677); test: agr I reporter strain AH1677 dose range (FIG. 3); format: cell-based; conditions: strain AH1677, fluorescence (FLD) of the gene reporter
# Protocol: Strain AH1677 was treated with a range of doses of SF6, SF7, and a combination of the two. OD refers to growth, while FLD refers to fluorescence of the gene reporter. […] The combined effects of SF6 and SF7 are additive; a dose 4 μg/mL SF6+4 μg/mL SF7 has the same effect as an 8 μg/mL dose of either.
# as §1
# [3] = tested on: Staphylococcus aureus reporter strains of agr (types I-IV: AH1677, AH430, AH1747, AH1872); test: Quorum quenching assay with agr P3-YFP reporter strains (fluorescence); format: cell-based; conditions: read-out: IC50 for inhibition of fluorescence across agr reporter strains
# From the text: Hydroperoxy-cycloartanes were isolated from the methanolic extract of the leaves of Castanea sativa, a substantial, long-lived deciduous tree that produces an edible seed, the chestnut. 224C-F2c-PF42-SF6 is a mixture of a cycloartane with a hydroperoxy group at the terminus of its alkyl chain and a carboxylic acid and methyl group replacing the gem-dimethyl group (1a) and a cycloartane with a terminal alkene and carboxylic acid in the S configuration at C24 (1b). 224C-F2c-PF42-SF7 is a cycloartane with a terminal alkene and carboxylic acid in the R configuration at C24 (2). […] The compounds 2 and SF6 were evaluated for the ability to inhibit fluorescence of Staphylococcus aureus reporter strains of agr, the main gene regulating quorum sensing. Additionally, 2 and SF6 were evaluated for cytotoxicity against human immortalized keratinocytes (HaCaT).
# After eluting from the column, 224C-F2 was split into parts a-d. […] A screen against S. aureus reporter strains of AIP-induced agr:P3 activation representing all four agr subtypes functioned as a preliminary readout of quorum sensing inhibition and the bioassay which guided fractionation. […]
structure (smiles),measurement,setting,value
C=C(C)[C@H](CC[C@H](C)[C@@H]1CC[C@]2(C)[C@H]3[C@H](O)C[C@@H]4[C@@](C)(C(=O)O)[C@H](O)CC[C@]45C[C@]35CC[C@@]12C)OO [Compound 2],growth inhibitory effects on S. aureus,[1],no growth inhibitory effects
same,activity in agr I reporter strain as compared to parent fraction and positive control 224C-F2c,[2],slightly reduced
same,IC50,[3],8 µg/mL
